Laboratory results from ChEMBL document CHEMBL3813657, “Bacterial Peptide deformylase inhibition of cyano substituted biaryl analogs: Synthesis, in vitro biological evaluation, molecular docking study and in silico ADME prediction” (Bioorg Med Chem, 2016).
Values after ≈ are worked out from the molar mass of the structure shown.

Assays:
Peptide deformylase [1] = molecular target: T1, Peptide deformylase (Escherichia coli, UniProt Q9JN24); experiment: Inhibition of NiCl2 stabilized Escherichia coli NCIM-2931 peptide deformylase using N-formyl-Met-Ala as substrate incubated for 30 mins by spectrophotometric method
T1 sequence (Q9JN24 whole entry): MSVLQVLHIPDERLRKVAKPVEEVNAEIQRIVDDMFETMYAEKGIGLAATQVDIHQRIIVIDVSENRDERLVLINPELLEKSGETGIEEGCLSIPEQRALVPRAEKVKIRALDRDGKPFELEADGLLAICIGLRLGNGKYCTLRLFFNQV

Escherichia coli = experiment: Antibacterial activity against Escherichia coli NCIM-2256 after 24 hrs by two fold serial dilution method; assay type: functional; conditions: NCIM-2256, 24 h
Bacillus subtilis = experiment: Antibacterial activity against Bacillus subtilis NCIM-2063 after 24 hrs by two fold serial dilution method; assay type: functional; conditions: NCIM-2063, 24 h
Peptide deformylase [2] = molecular target: T1, Peptide deformylase; experiment: Inhibition of Escherichia coli peptide deformylase

N#Cc1ccccc1-c1ccc(CNc2cccc(C(F)(F)F)c2)cc1
IC50 (Peptide deformylase [1]): 20.9 µM
MIC (Escherichia coli): 42.5 µg/mL (≈ 121 µM)
MIC (Bacillus subtilis): 25.8 µg/mL (≈ 73.3 µM)

N#Cc1ccccc1-c1ccc(CNn2cnnc2)cc1
IC50 (Peptide deformylase [1]): 50.7 µM
MIC (Escherichia coli): 36.5 µg/mL (≈ 133 µM)
MIC (Bacillus subtilis): 23.8 µg/mL (≈ 86.3 µM)

N#Cc1ccccc1-c1ccc(CNc2ccccc2[N+](=O)[O-])cc1
IC50 (Peptide deformylase [1]): 15.7 µM
MIC (Escherichia coli): 28.5 µg/mL (≈ 86.5 µM)
MIC (Bacillus subtilis): 23.8 µg/mL (≈ 72.1 µM)

N#Cc1ccccc1-c1ccc(CNc2cnccn2)cc1
IC50 (Peptide deformylase [1]): 19.2 µM
MIC (Escherichia coli): 16.9 µg/mL (≈ 59.1 µM)
MIC (Bacillus subtilis): 7.66 µg/mL (≈ 26.8 µM)

N#Cc1ccccc1-c1ccc(CNc2cccc([N+](=O)[O-])c2)cc1
IC50 (Peptide deformylase [1]): 25 µM
MIC (Escherichia coli): 40.9 µg/mL (≈ 124 µM)
MIC (Bacillus subtilis): 29.3 µg/mL (≈ 89.1 µM)

N#Cc1ccccc1-c1ccc(CNc2ccc(C(F)(F)F)cc2)cc1
IC50 (Peptide deformylase [1]): 33.5 µM
MIC (Escherichia coli): 35.5 µg/mL (≈ 101 µM)
MIC (Bacillus subtilis): 34.4 µg/mL (≈ 97.7 µM)

N#Cc1ccccc1-c1ccc(CNc2ccc(N3CCOCC3)c(F)c2)cc1
IC50 (Peptide deformylase [1]): 42.5 µM
MIC (Escherichia coli): 37.3 µg/mL (≈ 96.3 µM)
MIC (Bacillus subtilis): 21.6 µg/mL (≈ 55.7 µM)

N#Cc1ccccc1-c1ccc(CNc2ccccc2O)cc1
IC50 (Peptide deformylase [1]): 33 µM
MIC (Escherichia coli): 39.6 µg/mL (≈ 132 µM)
MIC (Bacillus subtilis): 29.3 µg/mL (≈ 97.6 µM)

N#Cc1ccccc1-c1ccc(CNc2ccccc2)cc1
IC50 (Peptide deformylase [1]): 13.2 µM
MIC (Escherichia coli): 15.8 µg/mL (≈ 55.7 µM)
MIC (Bacillus subtilis): 11 µg/mL (≈ 38.7 µM)

N#Cc1ccccc1-c1ccc(CNc2ccc(O)cc2)cc1
IC50 (Peptide deformylase [1]): 34.6 µM
MIC (Escherichia coli): 33.6 µg/mL (≈ 112 µM)
MIC (Bacillus subtilis): 28.3 µg/mL (≈ 94.3 µM)

CCCc1nc2ccc(Cl)cc2n1Cc1ccc(-c2ccccc2-c2nnn[nH]2)cc1
IC50 (Peptide deformylase [2]): 3.9 µM

N#Cc1ccccc1-c1ccc(CNc2ccc(C(=O)O)cc2)cc1
IC50 (Peptide deformylase [1]): 51.2 µM
MIC (Escherichia coli): 32.6 µg/mL (≈ 99.2 µM)
MIC (Bacillus subtilis): 26.8 µg/mL (≈ 81.5 µM)

COc1ccc2nc(NCc3ccc(-c4ccccc4C#N)cc3)sc2c1
IC50 (Peptide deformylase [1]): 27.8 µM
MIC (Escherichia coli): 35.2 µg/mL (≈ 94.9 µM)
MIC (Bacillus subtilis): 36.2 µg/mL (≈ 97.6 µM)

N#Cc1ccccc1-c1ccc(CNc2ccc(Cl)cc2[N+](=O)[O-])cc1
IC50 (Peptide deformylase [1]): 28.3 µM
MIC (Escherichia coli): 45.6 µg/mL (≈ 125 µM)
MIC (Bacillus subtilis): 27.2 µg/mL (≈ 74.7 µM)

CCCC1=NC2C(C)=CC(C)=NN2C1Cc1ccc(-c2ccccc2C(=O)O)cc1 (configuration not stated)
IC50 (Peptide deformylase [2]): 22.8 µM

O=C(O)c1cn(C2CC2)c2cc(N3CCNCC3)c(F)cc2c1=O [CIPROFLOXACIN]
MIC (Escherichia coli): 25 µg/mL (≈ 75.4 µM)
